The values that follow come from patent US6583132B1, “Oxidant scavengers” (Duke University, priority 1993, dated 2003).

Assay [1] in a line: SOD activity (McCord and Fridovich). It counts as biochemical. The note with it: In vitro Biochemistry. As for the experimental part:
SOD activity can be monitored in the presence and absence of EDTA using the method of McCord and Fridovich (J. Biol. Chem. 244:6049 (1969)). The efficacy of a mimetic can be determined by measuring the effect of the mimetic on the growth of a SOD null E. coli strain versus a wild type strain. Specifically, wild type E. coli (AB1157) and SOD null E. coli. (JI132) can be grown in M9 medium containing 0.2% casamino acids and 0.2% glucose at pH 7.0 and 37° C.; growth can be monitored in terms of turbidity followed at 700 nm spectrophotometrically. Active mimetics can be tested for toxicity in mammalian cell culture by measuring lactate dehydrogenase (LDH) release. Specifically, rat L2 cells (a lung Type II like cell; (Kaighn and Douglas, J. Cell Biol. 59:106a (1973)) can be grown in Ham's F-12 medium with 10% fetal calf serum supplement at pH 7.4 and 37° C.; cells can be seeded at equal densities in 24 well culture dishes and grown to approximately 90% confluence; SOD mimetics can be added to the cells at log doses (eg micromolar doses in minimal essential medium (MEM)) and incubated for 24 hours. Toxicity can be assessed by morphology and by measuring the release of the cytosolic injury marker, LDH (eg on a thermokinetic plate reader), as described by Vassault (In: Methods of Enzymatic Analysis, Bergmeyer (ed) pp. 118-26 (1983); oxidation of NADH is measured at 340 nm). Efficacy of active mimetics can be assessed by determining their ability to protect mammalian cells against methylviologen (paraquat)-induced toxicity. Specifically, rat L2 cells grown as described above and seeded into 24 well dishes can be pre-incubated with various concentrations of the SOD mimetic and then incubated with a concentration of methylviologen previously shown to produce an LC75 in control L2 cells. Efficacy of the mimetic can be correlated with a decrease in the methylviologen-induced LDH release (St. Clair et al, FEBS Lett. 293:199 (1991)). The efficacy of SOD mimetics can be tested in vivo with mouse and/or rat models using both aerosol administration and parenteral injection. For example, male Balb/c mice can be randomized into 4 groups of 8 mice each to form a standard 2×2 contingency statistical model. Animals can be treated with either paraquat (40 mg/kg, ip) or saline and treated with SOD mimetic or vehicle control. Lung injury can be assessed 48 hours after paraquat treatment by analysis of bronchoalveolar lavage fluid (BALF) damage parameters (LDH, protein and % PMN) as previously described (Hampson et al, Tox. Appl. Pharm. 98:206 (1989); Day et al, J. Pharm. Methods 24:1 (1990)). […]
^2SOD activity determined as described by McCord and Fridovich, J. Biol. Chem. […] (1969).

Assay [2] is described as follows: Catalase activity, Clark oxygen electrode. The class given is biochemical. The note with it: 1 mM hydrogen peroxide; oxygen formation over 2 minutes. From the text:
Catalase activity can be monitored by measuring absorbance at 240 nm in the presence of hydrogen peroxide (see Beers and Sizer, J. Biol. Chem. 195:133 (1952)) or by measuring oxygen evolution with a Clark oxygen electrode (Del Rio et al, Anal. Biochem. 80:409 (1977)). Peroxidase activity can be measured spectrophotometrically as previously described by Putter and Becker: Peroxidases. In: Methods of Enzymatic Analysis, H. U. Bergmeyer (ed.), Verlag Chemie, Weinheim, pp. 286-292 (1983. Aconitase activity can be measured as described in Example XI below.
Catalase activity was measured by means of a Clark oxygen electrode using a modified assay previously described by Del Rio et al, Anal. Biochem. 80:409 (1977). Briefly, reactions were performed in a nitrogen degassed phosphate buffer (50 mM, pH 7.8) containing 0.1 mM EDTA at 25° C. Three concentrations of hydrogen peroxide (1-4 mM) and four metalloporphyrin concentrations (0.5-50 μM) were used to determine second order rate constants. The rate of oxygen evolution was followed for 2 minutes.
^3Catalase activity determined as described by Del Rio et al, Anal. Biochem. 80:409 )1977). Metalloporphyrins were assayed at various concentrations in the presence of 1 mM hydrogen peroxide for catalase-like activity. A Clark electrode was used to measure the formation of oxygen from the breakdown of hydrogen peroxide over a period of 2 minutes.

For assay [3], the system named is J774 macrophages. The assay can be described thus: Nitrite/nitrate production in J774 macrophages. The class given is cell-based. Here is the method: (§1) Cell culture: J774 macrophages were cultured in DMEM medium, supplemented with L-glutamine (3.5 mmol/L) and 10% fetal calf serum. Cells were cultured in 96-well plates (200 μl medium/well) until confluence. To induce the inducible isoform of nitric oxide synthase (iNOS), fresh culture medium containing E. coli LPS (011:B4, 10 μg/ml) alone or in combination with murine γ-interferon (γ-IFN, 10 U/ml) was added in the presence or absence of the NOS inhibitor, the SOD mimetic of the combination of the two compounds for 24 h. Moreover, cells were exposed to the NO donor compounds S-nitroso-N-acetyl-DL-penicillamine (SNAP) (3 mM) and diethylamine:NO NONOate (DNO) (3 mM) for 24 h or to authentic peroxynitrite (1 mM) for 1 h). Nitride/nitrate concentration in the medium and mitochondrial respiration were then measured as described below.
Measurement of nitrite/nitrate production: Nitride/nitrate production, an indicator of NO synthesis, was measured in the supernatant. First, nitrate in the culture medium was reduced to nitrite by incubation with nitrate reductase (670 mU/ml) and NADPH (160 μM) at room temperature for 2 h. After 2 h, nitrite concentration in the samples were measured by the Griess reaction, by adding 100 μl of Griess reagent (1% sulfanilamide and 0.1% naphthylethylenediamide in 5% phosphoric acid) to 100 μl samples of conditioned medium. The optical density at 550 nm (OD550) was measured using a Spectramax 250 microplate reader (Molecular Devices, Sunnyvale, Calif.) Nitrate concentrations were calculated by comparison with OD550 of standard solutions of sodium nitrate prepared in culture medium. All measurements were corrected for the interference of MnTBAP at this wavelength.

The test system of assay [4] is aconitase. Kind of assay: Aconitase activity in cortical cell lysates. It counts as cell-based, rat. To be noted: 1 mM NOS inhibitor. Here is the method:
(§2) Tissue culture: Mixed neuronal and glial cultures were prepared from embryonic day-18 rat cerebral cortices (Sprague-Dawley, Zivic Miller). Briefly, the cerebral cortices were dissected and enzymatically dissociated by incubation in Ca^++-, Mg^++-free Hank's balanced salt solution (HBSS) supplemented with 10 mM HEPES and 0.25% trypsin for 20 min. at 37° C. The tissue was rinsed and dispersed into single cell suspension by gentle passage through a fire polished Pasteur pipette. The cell suspension was centrifuged and resuspended in Minimum Essential Media (MEM), containing Earle's salts supplemented with 3 g/L glucose, 5% horse serum and 5% fetal bovine serum (growth media). The cells were plated in poly-D-lysine-coated multi-well plates: 12-well plates for aconitase measurement, and 24 well plates for toxicity experiments. Cells were maintained at 37° C. in a humidified incubator with 5% CO2/95% air in growth media. Media was not replaced so as to reduce glial overgrowth and neuronal loss. Mature cells (14-17 days in vitro) were used for all experiments.
(§3) Cell treatment: The growth media was replaced with MEM supplemented with 25 mM glucose (MEM-g). For both neurotoxicity studies and aconitase measurement, cells were incubated in the designated treatment for the indicated length of time at 37° C. Unless otherwise specified, antagonists or SOD-mimetics were added 15 min. prior to agonists. For measurement of neurotoxicity, cells were incubated with treatments for 18 hr at 37° C. in MEM-g. To access the ability of antagonists to inhibit acute NMDA toxicity or rescue cells from an ongoing NMDA insult, an alternate paradigm of NMDA treatment was used in addition to the one describe above. In this paradigm, growth media was replaced with HBSS^+ (Ca^++-, Mg^++-free Hank's Balanced Salt Solution supplemented with 2 mM CaCl2, 1 mM NaHCO3, 10 mM HEPES and 5 μM glycine), cells were treated with vehicle or 100 μM NMDA for 15 min. after which HBSS^+ was replaced with MEM-g and cells were returned to the incubator for 18 additional hrs. Antagonsists or SOD-mimetics were added to the cells 15 min. before NMDA exposure or 15, 30 or 60 min. following final media replacement. For determination of Ca^++-dependence, cells were incubated in HBSS^+ with no added Ca^++. When kainate (KA) was used as an agonist, 100 μM D-APV was routinely included to block secondary NMDA receptor activation. Catalase (100 U/ml) was always included when xanthine plus xanthine oxidase (X+XO) was used as a treatment to rule out the contribution of hydrogen peroxide.
Aconitase measurement: For the measurement of aconitase, following treatment with agents, media was removed and cells lysed in ice-cold 50 mM, Tris/HCl, pH 7.4 containing 0.6 mM MnCl2, 1 mM L-cysteine, 1 mM citrate and 0.5% Triton-X 100. The aconitase activity of cell lysates was measured spectrophotometrically by monitoring the formation of cis-aconitate from isocitrate at 240 nm in 50 mM Tris/HCl, pH 7.4, containing 0.6 mM MnCl2 and 20 mM isocitrate at 25° C. (Kreb and Holzach, Biochem. J. 52:527 (1952); Gardner and Fridovich, J. Biol. Chem. 267:8757 (1992)). […] Aconitase activity in cortical cell lysates was inhibited by 0.1 mM potassium ferricyanide or by boiling of sample.

In assay [5] the test system is rat cortical cells. Kind of assay: Neurotoxicity (LDH release) in cortical cell culture. The class given is cell-based. Here is the method:
as §2, §3
Neurotoxicity studies: Neurotoxicity was determined by the measurement of LDH released in the supernatant media as previously described (Patel et al, Toxicol. Appl. Pharmacol. 115:124 (1991) and Neurotoxicology 14:35 (1992)). LDH was measured by the method of Vassault, Lactate dehydrogenase. In: Methods of Enzymatic Analysis, Bergmeyer HU (ed), Verlag Chemie, Weinheim, pp. 118-126 (1983). Additionally, cell death was confirmed with ethidium-1 homodimer (EthD-1). Briefly, the cells were washed with HBSS, loaded with 20 μM EthD-1 for 30 min,. rinsed and viewed through fluorescence optics. The number of dead cells labeled with EthD-1 were counted in 4-6 randomly selected fields, the numbers averaged to give an estimate of cell death and the experiment was repeated 3 times.
In general terms: LDH in the medium is a marker of cell lysis.

The test system of assay [6] is J774 macrophages. Kind of assay: Mitochondrial respiration (MTT) in J774 macrophages. The class given is cell-based. Here is the method: as §1
Measurement of mitochondrial respiration: Cell respiration was assessed by the mitochondrial-dependent reduction of 3-(4,5-dimethylthiazol-2-yl)-2,5-diphenyltetrazolium bromide (MTT) to formazan. Cells in 96-well plates were incubated at 37° C. with MTT (0.2 mg/ml) for 1 hour. Culture medium was removed by aspiration and the cells were solubilized in DMSO (100 μl). The extent of reduction of MTT to formazan within cells was quantitated by the measurement of OD550. All measurements were corrected for the interference of MnTBAP at this wavelength.

As for “3,3′3″,3′″-Tetramethoxy-4,4′,4″,4′″-(porphine-5,10,15,20-tetrayl)tetrakis (benzoic acid) [Compound 10305]”, the SOD result in assay [1] is “inactive”. The molecule also came in with a Catalase in assay [2] of 2.2 min⁻¹.

Regarding `CNC(=N)NCCC[C@H](N)C(=O)O` [L-NMA, N^G-methyl-L-arginine, reference compound], the “change of inhibition of nitrite/nitrate accumulation when applied 6 h after LPS” value in assay [3] (LPS-stimulated macrophages) is “similar”. The “inhibition of the production of NO” value in assay [3] (cells stimulated with LPS or LPS and IFN) is listed as “near-complete inhibition”. The NMDA-induced aconitase inactivation result in assay [4] is reported as “unchanged”. Further, the “NMDA-induced LDH release” value in assay [5] (1 mM NOS inhibitor) is listed as “unchanged”. Besides, in assay [6] (LPS-treated and LPS and IFN-treated cells, 24 h), the “immunostimulation-induced suppression of mitochondrial respiration” value is “restoration of the respiration to an extent comparable with that of 300 μM MnTBAP”.

Consider “Tetra (N,N-dimethyl) 4,4′,4″,4′″-(porphine-5,10,15,20-tetrayl)-tetrakis(benzamide) manganese (III) chloride [Compound 10109]”, for which, in assay [1], the SOD was 470 μg/USOD. Besides, the Catalase in assay [2] is 0.59 min⁻¹.

Turning to “Trimethyl 2,2′,2″, 2′″-tetrahydroxy-4-benzoic acid-4″, 4″, 4′″ (porphine -5,10,15,20-tetrayl)tribenzoate manganese (III) chloride [Compound 10303]”, the SOD in assay [1] is listed as 78 μg/USOD. This molecule showed a Catalase in assay [2] of 1.4 min⁻¹. The “protection against NMDA-induced excitotoxicity” value in assay [5] (NMDA 50 μM, 25 μM compound) was 100%. Besides, the “protection against kainate-induced excitotoxicity” value in assay [5] (kainate 300 μM, 100 μM compound) was 100%.

B1: IFN: murine γ-interferon (protein, UniProt P01580 23-155, looked up)
Interferon gamma: HGTVIESLESLNNYFNSSGIDVEEKSLFLDIWRNWQKDGDMKILQSQIISFYLRLFEVLKDNQAISNNISVIESHLITTFFSNSKAKKDAFMSIAKFEVNNPQVQRQAFNELIRVVHQLLPESSLRKRKRSRC
For the molecule B1, the suppression of respiration in assay [6] (IFN alone, 10 U/ml) was below 15%.
